Assay results from paper PMC11327220 (Bioscience Reports, 2024).
Several values for one entry are separate records, joined by “and”; a condition that tells them apart may be missing. Equal entries are not always repeated. Where two headings read alike, the source gives them in different places.

Experiments:
[1] = target: T1, SARS-CoV-2 3CLpro (Severe acute respiratory syndrome coronavirus 2, UniProt P0DTD1); assay: biochemical; format: biochemical
[2] = target: 3CLpro (Severe acute respiratory syndrome coronavirus 2, UniProt P0DTD1); format: binding, SARS-CoV-2
[3] = target: MERS 3CLpro (Middle East respiratory syndrome-related coronavirus, UniProt K9N7C7); assay: biochemical
[4] = target: SARS-CoV-1 3CLpro (Severe acute respiratory syndrome coronavirus, UniProt P0C6X7); assay: biochemical
[5] = target: T1, SARS-CoV-2 3CLpro; assay: Inhibition kinetics of luteolin (competitive inhibition fit); format: biochemical
[6] = system: SARS-CoV-2 (ancestral strain A2.2); assay: microbe, parasite or virus in culture; format: cell-based; details: Severe acute respiratory syndrome coronavirus 2, HEK-293T, read-out: IC50 in the live virus assay
[7] = read-out: IC50 of micronutrients against 3CLpro
[8] = additive in the absence of luteolin
[9] = one additive: 100 µM luteolin, 3.5 mM magnesium, 2.3 mM manganese, 0.3 mM zinc or 0.3 mM vitamin C, free enzyme 133 ± 4
[10] = 2.3 mM manganese, 3.5 mM magnesium or 0.3 mM vitamin C, no luteolin
[11] = 0.3 mM vitamin C in the presence of 100 µM luteolin
[12] = versus luteolin without micronutrients

MERS 3CLpro, sequence (K9N7C7 3248-3553 limits assumed): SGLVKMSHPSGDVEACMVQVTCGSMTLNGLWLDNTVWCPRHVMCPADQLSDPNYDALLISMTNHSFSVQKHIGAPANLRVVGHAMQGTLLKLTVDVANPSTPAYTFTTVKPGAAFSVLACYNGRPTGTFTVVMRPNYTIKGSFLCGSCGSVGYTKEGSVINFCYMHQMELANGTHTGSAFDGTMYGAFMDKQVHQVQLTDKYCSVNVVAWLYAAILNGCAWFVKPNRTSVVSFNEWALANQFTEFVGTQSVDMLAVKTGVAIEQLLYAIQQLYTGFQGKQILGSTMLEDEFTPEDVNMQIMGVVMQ

[Ca+2].[Cl-].[Cl-] [CaCl2]
IC50 [1, 7]: 1900 ± 200 µM

O=c1c2ccccc2[se]n1-c1ccccc1 [Ebselen, reference compound]
percentage inhibition of SARS-CoV-2 3CLpro [1]: completely inhibits

[Cl-].[Cl-].[Mg+2] [MgCl2]
IC50 [1, 7]: 24000 ± 1100 µM
Tm of the first transition (Tm1) of 3CLpro [2]: 35 ± 0.3 °C
Tm of the second transition (Tm2) of 3CLpro [2]: 45 ± 0.5 °C
fold increase of ΔHcal over free 3CLpro [2, 8]: 2 fold
calorimetric enthalpy (ΔHcal) of unfolding of 3CLpro [2, 9]: 63.1 ± 3.59 kcal/mol

[Cl][Mn][Cl] [MnCl2]
IC50 [1, 7]: 2300 ± 200 µM
Tm of the first transition (Tm1) of 3CLpro [2, 10]: 35 ± 0.3 °C
Tm of the second transition (Tm2) of 3CLpro [2, 10]: 45 ± 0.5 °C
fold increase of ΔHcal over free 3CLpro [2, 8]: 3 fold
calorimetric enthalpy (ΔHcal) of unfolding of 3CLpro [2, 9]: 85.1 ± 10.8 kcal/mol

O=C1O[C@H]([C@@H](O)CO)C(O)=C1O [Vitamin C, L-ascorbate]
IC50 [1]: 800 ± 20 µM
Tm of the first transition (Tm1) of 3CLpro [2]: 34 °C
Tm of the second transition (Tm2) of 3CLpro [2]: 45 ± 0.7 °C
calorimetric enthalpy (ΔHcal) of unfolding of 3CLpro [2, 11]: 307.8 ± 32.58 kcal/mol
fold increase of ΔHcal over free 3CLpro [2, 11]: 10 fold
Tm of the late transition (Tm3) of 3CLpro ([2]; 0.3 mM vitamin C, no luteolin): 56 ± 0.2 °C
fold increase of ΔHcal over free 3CLpro [2, 8]: 8 fold
calorimetric enthalpy (ΔHcal) of unfolding of 3CLpro [2, 9]: 247.1 ± 13.9 kcal/mol

[Cl-].[Cl-].[Zn+2] [ZnCl2]
IC50 [1, 7]: 1100 ± 200 µM
decrease of Tm compared with apo-3CLpro [2]: approximately 6 °C
melting point (Tm) of 3CLpro, single transition [2]: 41 ± 0.4 °C
fold increase of ΔHcal over free 3CLpro [2, 8]: 4 fold
calorimetric enthalpy (ΔHcal) of unfolding of 3CLpro [2, 9]: 108 ± 12 kcal/mol

O=c1cc(-c2ccc(O)c(O)c2)oc2cc(O)cc(O)c12 [luteolin, 2-(3,4-dihydroxyphenyl)-5,7-dihydroxy-4H-chromen-4-one]
fold decrease of the IC50 of luteolin with the combination of vitamin C and magnesium [1]: 3 fold
fold decrease of the IC50 of luteolin with the combination of zinc and magnesium [1]: 2 fold
IC50 ([1]; 2 µM 3CLpro, 60 µM peptide substrate, absence of micronutrients): 78 µM
inhibition at 25 µM ([1]; read-out: percentage inhibition of SARS-CoV-2 3CLpro): 41%
fold decrease of the IC50 of luteolin in the presence of magnesium [1, 12]: 1.7 fold and 2 fold
fold decrease of the IC50 of luteolin in the presence of magnesium, zinc, and vitamin C [1, 12]: 10 fold
fold increase of the IC50 of luteolin in the presence of calcium [1, 12]: 2 fold
fold increase of the IC50 of luteolin in the presence of zinc [1, 12]: 2 fold
IC50 [3]: 388 ± 59 µM
IC50 [4]: 711 ± 130 µM
Ki [5]: 93 ± 12 µM
fold increase of Ka over Km of the peptide substrate in the absence of inhibitor ([5]; in the presence of luteolin): ~6 fold
apparent Michaelis constant (Ka) for the peptide substrate in the presence of luteolin ([5]; luteolin 40-400 µM, Km without inhibitor 66 ± 7 µM): 406 ± 48 µM
inhibition pattern ([5]; luteolin versus the peptide substrate): competitive inhibition
IC50 [6]: 90 ± 11 µM
melting point (Tm) of 3CLpro, single transition ([2]; 25 μM 3CLpro with 100 µM luteolin or 0.3 mM zinc, apo-3CLpro 46.7 ± 0.1): 46.7 ± 0.1 °C
effect of adding luteolin on the thermograms of 3CLpro in the presence of metal ions ([2]; 100 µM luteolin with metal ions): minimal effect
calorimetric enthalpy (ΔHcal) of unfolding of 3CLpro [2, 9]: 24.1 ± 3.59 kcal/mol
